Laboratory results published in publication PMC2806602 (The Journal of neuroscience : the official journal of the …, 2009).
Residue numbers refer to the chain shown, from its start.

How the values were obtained:
Type in all cases: cell-based
[1] = biological target: T1, GluRδ2^Lc D535A (Rattus norvegicus, UniProt Q63226, A654T/D535A); experiment: Two-electrode voltage-clamp recordings in Xenopus oocytes, GluRδ2^Lc D535A
T1 sequence (Q63226 24-1007 D535A/A654T): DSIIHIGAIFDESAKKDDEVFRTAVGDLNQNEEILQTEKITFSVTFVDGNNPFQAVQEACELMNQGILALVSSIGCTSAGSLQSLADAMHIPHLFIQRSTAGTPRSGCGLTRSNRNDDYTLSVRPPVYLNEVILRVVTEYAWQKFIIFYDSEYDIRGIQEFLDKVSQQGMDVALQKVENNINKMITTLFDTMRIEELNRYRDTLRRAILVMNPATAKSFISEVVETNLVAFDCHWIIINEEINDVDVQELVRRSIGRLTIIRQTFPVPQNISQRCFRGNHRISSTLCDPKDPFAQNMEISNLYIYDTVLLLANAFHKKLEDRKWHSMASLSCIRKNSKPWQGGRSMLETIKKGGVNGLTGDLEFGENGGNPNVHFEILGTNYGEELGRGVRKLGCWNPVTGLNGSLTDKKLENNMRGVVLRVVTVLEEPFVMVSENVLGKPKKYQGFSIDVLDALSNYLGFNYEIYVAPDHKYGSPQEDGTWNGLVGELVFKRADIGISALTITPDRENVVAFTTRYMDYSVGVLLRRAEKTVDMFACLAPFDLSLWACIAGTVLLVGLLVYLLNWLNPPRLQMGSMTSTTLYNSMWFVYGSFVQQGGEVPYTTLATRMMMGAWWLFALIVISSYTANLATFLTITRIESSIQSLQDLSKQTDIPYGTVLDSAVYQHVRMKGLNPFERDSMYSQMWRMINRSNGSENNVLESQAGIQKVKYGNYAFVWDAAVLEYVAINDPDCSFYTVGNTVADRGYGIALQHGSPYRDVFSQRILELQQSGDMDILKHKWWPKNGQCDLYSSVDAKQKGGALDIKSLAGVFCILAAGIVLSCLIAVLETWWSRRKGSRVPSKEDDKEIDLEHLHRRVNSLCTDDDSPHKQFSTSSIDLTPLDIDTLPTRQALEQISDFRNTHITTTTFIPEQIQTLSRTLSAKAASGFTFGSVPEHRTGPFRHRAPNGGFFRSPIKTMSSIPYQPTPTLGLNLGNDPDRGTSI

[2] = biological target: T2, GluRδ2^Lc D782A (Rattus norvegicus, UniProt Q63226, A654T/D782A); experiment: Two-electrode voltage-clamp recordings in Xenopus oocytes, GluRδ2^Lc D782A
T2 sequence (Q63226 24-1007 A654T/D782A): T1 sequence (Q63226 24-1007 D535A/A654T) with A512D, D759A

[3] = biological target: T3, GluRδ2^Lc P528C+L789C (Rattus norvegicus, UniProt Q63226, A654T/L789C/P528C); experiment: Two-electrode voltage-clamp recordings in Xenopus oocytes, GluRδ2^Lc P528C+L789C
T3 sequence (Q63226 24-1007 P528C/A654T/L789C): T1 sequence (Q63226 24-1007 D535A/A654T) with P505C, A512D, L766C

SMILES: [Ca+2] [Ca^2+, calcium]
- Ca^2+ potentiation (relative to baseline) ([1]; 3 mM Ca^2+, ± SEM): 1.0 ± 0.01 fold
- Ca^2+ potentiation (relative to baseline) ([2]; 3 mM Ca^2+, ± SEM): 0.8 ± 0.02 fold
- Ca^2+ potentiation (relative to baseline) ([3]; 3 mM Ca^2+, ± SEM): 0.9 ± 0.01 fold

SMILES: N[C@H](CO)C(=O)O [D-serine]
- D-serine + 0 mM Ca^2+ nH ([1]; Hill slope, 0 mM Ca^2+): 2.3
- D-serine + 3 mM Ca^2+ nH ([1]; Hill slope, 3 mM Ca^2+): 2.2
- D-serine + 0 mM Ca^2+ nH ([2]; Hill slope, 0 mM Ca^2+): 1.0
- D-serine + 3 mM Ca^2+ nH ([2]; Hill slope, 3 mM Ca^2+): 1.1
- D-serine + 0 mM Ca^2+ nH ([3]; Hill slope, 0 mM Ca^2+): 1.1
- D-serine + 3 mM Ca^2+ nH ([3]; Hill slope, 3 mM Ca^2+): 0.8
